In patent US20070071773A1, “Compositions and methods for the treatment and prophylaxis of infections caused by gram positive bacteria” (priority 2002, published 2007):
“Also recorded” adds a separate entry of the source.

Legend:
GAS strain JS95 = assay: Histopathology of soft-tissue lesions: neutrophil (PMN) recruitment in mice challenged with JS95; format: in vivo, Group A Streptococcus (GAS); conditions: 10^8 CFU JS95 with 100 μg of 70% pure peptide, 24 h after inoculation, FIG. 11C, 11D
Experimental: Haematoxylin and eosin stain of the soft-tissue lesions from a mouse challenged with 10^8 CFU of JS95 24 h after inoculation (11A-11B) in the presence of 100 μg of 70% pure peptide (11C, 11D). After 24 hours, skin samples were stained with hematoxiline and eosine and examined by microscopy at 50 (11A, 11C) and 400 (11B, 11D) fold magnification. There is extensive necrosis of fascia, massive presence of bacteria but no infiltration of neutrophils. There were no differences in the histopathology findings as determined in two mice in 4 different experiments.
The ability of GAS to cause lethal infection in ten-gram BALB/c female mice (Harlan Laboratories, Jerusalem, Israel) was assessed as described before [Ravins, M. et al. J. Infect. Dis. 182:1702-11 (2000)]. Briefly, 10^8 CFU of log-phase bacteria were washed twice in PBS, resuspended in 0.1 ml PBS and injected subcutaneously into the back of a mouse. The number of CFU injected was verified for each experiment by plating bacteria on THY-blood agar plates and counting. Each group contained 8 to 10 mice that were observed daily for death and changes in the lesions' properties such as size and depth, or were sacrificed at different times after inoculation for histopathological assessment. […] Aliquots were plated and streptococcal colonies were counted. […]

[1] = system: trypsin-like GAS protease; assay: Degradation of IL-8 by JS95 supernatant (Western blot, ELISA); format: biochemical, Group A Streptococcus (GAS); conditions: supernatant of JS95 grown without SilCR, 50 μg/ml SilCR added to the assay; FIG. 14
Experimental: […] was grown in the absence and presence of SilCR (50 μg/ml). IL-8 was incubated with the indicated supernatant fractions and then subjected to 18% SDS-PAGE. The separated protein bands were electro-transferred to a nitrocellulose membrane. Anti-IL-8 antibody and a secondary antibody conjugated to horseradish peroxidase were used to detect IL-8. The number of the lane represents incubation of IL-8 with: 1, DMEM+FCS (control); 2, JS95 supernatant; 3, JS95 supernatant grown in the presence of SilCR; 4, JS95 supernatant, pretreated with pefabloc SC; 5, supernatant of JS95 grown in the absence of SilCR, then 50 μg/ml of SilCR was added to the degradation assay.
15A The column numbers represent the ELISA results after incubation of IL-8 with: 1, DMEM+FCS (control); and the supernatants of: 2, JS95; 3, JS95 grown in the presence of SilCR; 4, JS95 pretreated with aprotenin; 5, JS95 pretreated with soybean trypsin inhibitor; 6, JS95 pretreated with benzamidine. The background of the ELISA assay (0.08±0.004) was subtracted from the shown results. The data represent the mean ± SD, of three separate experiments.
A. Cell culture of JS95 strain was grown in THY to an OD600 of 0.2. To determine the effect of SilCR on chemokine proteolysis, the culture was split into two equal fractions, of which one received SilCR (25 μg/ml). Both fractions were further incubated until they reached an OD600 of 0.3. Bacteria were washed twice with sterile PBS and once with DMEM containing 10% FCS. The washed pellets were re-suspended in DMEM supplemented with FCS to their original volumes. SilCR (50 μg/ml) was added to the fraction that was grown in the presence of SilCR, and the two fractions were further incubated for 1 h at 37° C. Supernatants were collected after centrifugation. The proteolysis reaction contained: 0.08 ml of each supernatant, 100 ng of recombinant human IL-8/CXCL8 (R&D systems, Minneapolis, Minn.) or 30 ng of recombinant murine MIP-2 (R& D systems, Minneapolis, Minn.), 20 mM MOPS pH=7.2 in a final volume of 0.1 ml. The reaction was conducted for 1 h at 37° C., and stopped by boiling for 1 min.
B. For testing protease inhibitors, the supernatants were pre-incubated with the inhibitor for 30 min at 37° C., followed by the proteolysis reaction. The following concentrations of inhibitors were used: 4 mM pefabloc SC; 0.5 mM PMSF; 0.3 μM aprotinin; 1 mM benzamidine; 100 μg/ml soybean trypsin inhibitor (STI).
C. Proteolysis of chemokines was determined by ELISA and Dot-blot. IL-8 content was quantified by ELISA using the Quantikine kit for determination of human IL-8 (R&D Systems, Minneapolis, Minn.) according to the manufacturer's instructions.

GAS M1 strain 340 = assay: Murine NF model: lesions after challenge with M1 strain 340; format: in vivo, Group A Streptococcus (GAS); conditions: co-injection of SilCR (50 μg, 90% purified) with 10^8 CFU M1 strain 340; FIG. 16C
Experimental: 16C. mice infected with 10^8 CFU of M1 strain 340+SilCR (50 μg 90% purified) 48 h after inoculation.
The ability of GAS to cause lethal infection in ten-gram BALB/c female mice (Harlan Laboratories, Jerusalem, Israel) was assessed as described before [Ravins, M. et al. J. Infect. Dis. 182:1702-11 (2000)]. Briefly, 10^8 CFU of log-phase bacteria were washed twice in PBS, resuspended in 0.1 ml PBS and injected subcutaneously into the back of a mouse. The number of CFU injected was verified for each experiment by plating bacteria on THY-blood agar plates and counting. Each group contained 8 to 10 mice that were observed daily for death and changes in the lesions' properties such as size and depth, or were sacrificed at different times after inoculation for histopathological assessment. To determine the presence of bacteria in skin and spleen, mice were sacrificed; a wide area surrounding the skin lesions was excised, spleens were removed, and organs were homogenized in 10 or 1 ml of sterile PBS, respectively. Aliquots were plated and streptococcal colonies were counted. The Institutional Ethics Committee for animal care approved all animal procedures (approval number MD 79.17-4).
GAS of M1 and M3 serotypes are commonly associated with invasive disease and NF, and each lack the SilCR gene in their locus. […]

[2] = Neutrophil influx in mice after injection of the peptide alone; format: in vivo; conditions: without bacteria
Excerpt: This is in a sharp contrast to the paucity of neutrophil influx in mice challenged with JS95 alone (FIG. 11B). Thus, a rapid recruitment of neutrophils appears necessary to confine GAS infection, subsequently preventing a systemic GAS dissemination.

M3 strain = assay: Murine NF model: lesions after challenge with an M3 strain; format: in vivo, Group A Streptococcus (GAS); conditions: SilCR injected together with an M3 strain (data not shown)

Sequence: DIFKLVIDHISMKARKK (SilCR peptide) [17 amino acid synthetic peptide, predicted mature form of the pheromone peptide encoded by the SilCR ORF; used at 70% or 90% purity]
- recruitment of PMN / neutrophil infiltration at the site of infection (GAS strain JS95): abundant neutrophil infiltration
- recruitment of PMN / neutrophil infiltration at the site of infection (GAS strain JS95; listed as peptide): significant recruitment of PMN
- IL-8 proteolysis with purified peptide added to the degradation assay [1]: did not itself block IL-8 proteolysis
- lesion size and duration (GAS M1 strain 340): significantly reduced size and duration
- neutrophil influx [2]: did not stimulate neutrophil recruitment; also recorded: did not induce neutrophil influx
- lesions (M3 strain): reduced lesions
